Measurements from patent publication US11840527B2, “Non-fused thiophene derivatives and their uses” (ENYO PHARMA, priority 2018, dated 2023).

Test system: H1N1 (influenza A/New Caledonia/20/99)
Assay: Antiviral effect on A549 cells infected with H1N1
Type: cell-based, H1N1 A/New Caledonia/20/99 virus
Conditions: Influenza A virus, MOI 0.1, 48 h post-infection, MUNANA neuraminidase readout
Description: The antiviral effect of the compounds of the invention have been tested on A549 cell lines infected with H1N1 (influenza A/New Caledonia/20/99).
Human A549 cells (80,000 cells/well in a 96 well plate) were treated with a range of concentration of test compounds and immediately infected by H1N1 A/New Caledonia/20/99 virus (clinical isolate) at MOI of 0.1 in DMEM/1% Penicillin/streptomycin supplemented with […] TPCK trypsin (Sigma) and incubated at 37° C. in 5% CO2. 48 h post-infection, supernatants (25 μl) were collected and transferred into a 96-well black flat-bottom plate, mixed with 25 μl PBS with Ca++/Mg++ (Thermo Fisher) and 50 μl of 2′-(4-Methylumbelliferyl)-ax-D-N-acetylneuraminic acid sodium salt hydrate stock-solution (20 μM, MUNANA, Sigma). Plates were incubated 1h at 37° C. and reaction is stopped by adding 100 μl of Stop Solution (glycine 0.1 M pH10.7/25% ethanol). The amount of fluorescent product released by MUNANA hydrolysis (4-MU) was measured in a Tecan spectrophotometer with excitation and emission wavelengths of 365 and 450 nm respectively.

SMILES | IC50 [µM]
O=C(Nc1scc(C2CC2)c1C(=O)O)c1ccccc1 [Compound #87, 2-Benzamido-4-cyclopropyl-thiophene-3-carboxylic acid] | 0.81
O=C(Nc1scc(-c2ccc(C(F)(F)F)cc2)c1C(=O)O)c1ccccc1 [Compound #20, 2-Benzamido-4-[4-(trifluoromethyl)phenyl]thiophene-3-carboxylic acid] | 0.31
COC1CN(c2ccc(C(=O)Nc3scc(C4CC4)c3C(=O)O)cc2)C1 [Compound #88, 4-Cyclopropyl-2-[[4-(3-methoxyazetidin-1-yl)benzoyl]amino]thiophene-3-carboxylic acid] | 0.5
COCCNc1ccc(C(=O)Nc2scc(C3(C)CC3)c2C(=O)O)cc1 [Compound #108, 2-[[4-(2-Methoxyethylamino)benzoyl]amino]-4-(1-methylcyclopropyl)thiophene-3-carboxylic acid] | 0.56
Cc1ccc(-c2c(Cl)sc(NC(=O)c3ccccc3)c2C(=O)O)cc1 [Compound #24, 2-Benzamido-5-chloro-4-(p-tolyl)thiophene-3-carboxylic acid] | 0.35
O=C(Nc1sc(Cl)c(C2CCCCC2)c1C(=O)O)c1ccccc1 [Compound #12, 2-Benzamido-5-chloro-4-cyclohexyl-thiophene-3-carboxylic acid] | 0.245
O=C(Nc1sc(Cl)c(-c2ccccc2)c1C(=O)O)c1ccc(OC(F)F)cc1 [Compound #31, 5-Chloro-2-[[4-(difluoromethoxy)benzoyl]amino]-4-phenyl-thiophene-3-carboxylic acid] | 1.37
O=C(Nc1scc(C2CCCC2)c1C(=O)O)c1ccc(NCC2CCOCC2)cc1 [Compound #66, 4-Cyclopentyl-2-[[4-(tetrahydropyran-4-ylmethylamino)benzoyl]amino]thiophene-3-carboxylic acid] | 0.015
COCCNc1ccc(C(=O)Nc2scc(C3CCCC3)c2C(=O)O)cc1 [Compound #61, 4-Cyclopentyl-2-[[4-(2-methoxyethylamino)benzoyl]amino]thiophene-3-carboxylic acid] | 0.1
COC1CN(c2ccc(C(=O)Nc3scc(C4CCC4)c3C(=O)O)cc2)C1 [Compound #97, 4-Cyclobutyl-2-[[4-(3-methoxyazetidin-1-yl)benzoyl]amino]thiophene-3-carboxylic acid] | 0.11
COCCOc1ccc(C(=O)Nc2scc(C(C)(C)C)c2C(=O)O)cc1 [Compound #116, 4-tert-Butyl-2-[[4-(2-methoxyethoxy)benzoyl]amino]thiophene-3-carboxylic acid] | 0.01
Cc1sc(NC(=O)c2ccccc2)c(C(=O)O)c1C1CCCCC1 [Compound #27, 2-Benzamido-4-cyclohexyl-5-methyl-thiophene-3-carboxylic acid] | 0.88
COc1ccc(C(=O)Nc2scc(-c3ccccc3)c2C(=O)O)cc1OC [Compound #46, 2-[(3,4-Dimethoxybenzoyl)amino]-4-phenyl-thiophene-3-carboxylic acid] | 9.65
O=C(Nc1scc(C2COc3ccccc3C2)c1C(=O)O)c1ccccc1 (stereo not drawn) [Compound #84, 2-Benzamido-4-chroman-3-yl-thiophene-3-carboxylic acid] | 0.287
O=C(Nc1scc(C2CCCCC2)c1C(=O)O)c1ccc(N2CCOCC2)cc1 [Compound #29, 4-Cyclohexyl-2-[(4-morpholinobenzoyl)amino]thiophene-3-carboxylic acid] | 1.27
CC(C)(C)[C@H]1CC[C@H](c2csc(NC(=O)c3ccccc3)c2C(=O)O)CC1 [Compound #48, 2-Benzamido-4-(trans-4-tert-butylcyclohexyl)thiophene-3-carboxylic acid] | 0.35
COC1CN(c2ccc(C(=O)Nc3scc(C4CCCC4)c3C(=O)O)cc2)C1 [Compound #62, 4-Cyclopentyl-2-[[4-(3-methoxyazetidin-1-yl)benzoyl]amino]thiophene-3-carboxylic acid] | 0.052
COCCNc1ccc(C(=O)Nc2scc(C(C)(C)C)c2C(=O)O)cc1 [Compound #103, 4-tert-Butyl-2-[[4-(2-methoxyethylamino)benzoyl]amino]thiophene-3-carboxylic acid] | 0.46
